This is an account of results in ChEMBL document CHEMBL2417373, “Substituted tetrahydroisoquinolines as selective antagonists for the orexin 1 receptor” (J Med Chem, 2013).

The target in assay [1] is T1, Orexin receptor type 2 (Homo sapiens) (UniProt O43614).
T1 sequence (whole entry): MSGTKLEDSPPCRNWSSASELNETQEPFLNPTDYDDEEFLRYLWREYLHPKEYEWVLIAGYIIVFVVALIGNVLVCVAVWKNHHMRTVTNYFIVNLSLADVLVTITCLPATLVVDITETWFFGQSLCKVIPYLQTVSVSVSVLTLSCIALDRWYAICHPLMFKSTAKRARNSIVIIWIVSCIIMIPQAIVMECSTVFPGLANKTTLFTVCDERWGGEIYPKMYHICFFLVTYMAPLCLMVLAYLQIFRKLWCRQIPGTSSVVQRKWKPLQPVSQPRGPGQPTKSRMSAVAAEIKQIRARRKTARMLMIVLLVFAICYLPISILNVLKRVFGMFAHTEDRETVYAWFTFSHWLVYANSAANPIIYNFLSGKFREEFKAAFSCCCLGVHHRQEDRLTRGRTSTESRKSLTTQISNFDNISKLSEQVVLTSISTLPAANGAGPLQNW
The assay can be described thus: Antagonist activity at OX2 receptor (unknown origin) expressed in RD-HGA16 cells assessed as inhibition orexin A-induced calcium mobilization at 10 uM by fluorescence assay. It is filed as functional, cell-based. In general terms: Calcium assays in cells follow changes in intracellular calcium, usually with a dye or a luminescent sensor.

In assay [2] the target is T2, Orexin/Hypocretin receptor type 1 (Homo sapiens) (UniProt O43613).
T2 sequence (whole entry): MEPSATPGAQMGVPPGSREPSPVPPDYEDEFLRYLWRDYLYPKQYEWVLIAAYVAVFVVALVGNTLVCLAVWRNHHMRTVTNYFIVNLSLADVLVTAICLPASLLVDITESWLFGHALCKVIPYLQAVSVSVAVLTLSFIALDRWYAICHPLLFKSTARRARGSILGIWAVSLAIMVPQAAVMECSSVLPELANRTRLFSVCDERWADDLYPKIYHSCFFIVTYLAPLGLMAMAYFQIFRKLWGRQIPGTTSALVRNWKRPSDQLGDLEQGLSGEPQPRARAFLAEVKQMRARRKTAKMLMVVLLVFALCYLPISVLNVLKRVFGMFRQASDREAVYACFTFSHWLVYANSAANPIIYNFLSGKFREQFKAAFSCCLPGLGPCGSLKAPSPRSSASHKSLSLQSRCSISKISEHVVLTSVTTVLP
The assay can be described thus: Antagonist activity at OX1 receptor (unknown origin) expressed in RD-HGA16 cells assessed as inhibition orexin A-induced calcium mobilization by fluorescence assay. It is filed as functional, cell-based.

The species entered for assay [3] is Homo sapiens. Nature of the assay: Selectivity ratio of Ke for OX2 receptor (unknown origin) to Ke for OX1 receptor (unknown origin).
In assay [4] the target is T2, Orexin/Hypocretin receptor type 1 (Homo sapiens). Nature of the assay: Agonist activity at OX1 receptor (unknown origin) expressed in RD-HGA16 cells assessed as calcium mobilization at 10 uM by fluorescence assay. It is filed as functional, cell-based.

Activity calls are given as the source filed them. The calls are words filed in the database; no cut-off is given here. Bounds are passed on as bounds.

For orientation: inhibition means the share of the control response that was lost under treatment. For `COc1ccc(CC2c3cc(OC)c(OC)cc3CCN2CC(=O)N[C@@H](C)c2ccccc2)cc1OC` (single isomer, unassigned; diastereomer 1), the inhibition in assay [1] is less than 30%. Moreover, the Ke(app) in assay [2] is greater than 10000 nM.
Regarding `COc1ccc(CC2c3cc(OS(C)(=O)=O)c(OC)cc3CCN2CC(=O)NCc2ccccc2)cc1OC` (stereo unspecified), the Ratio in assay [3] is 297. In addition, in assay [4], the result was inactive. The Ke(app) in assay [2] came to 7.3 nM.
For the compound `COc1ccc(CC2c3cc(OC)c(OC)cc3CCN2CC(=O)NCc2ccc(N(C)C)cc2)cc1OC` (stereo unspecified), the Ke(app) in assay [2] came out at 3230 nM.
Turning to `COc1ccc(CC2c3cc(OCCN4CCCCC4)c(OC)cc3CCN2CC(=O)NCc2ccccc2)cc1OC` (stereo unspecified), the inhibition in assay [1] is less than 30%. Further, in assay [2], the Ke(app) turned out to be 8040 nM.
With `COc1ccc(CC2c3cc(OC)c(OC)cc3CCN2CC(=O)N2CCc3ccccc3C2)cc1OC` (stereo unspecified), the Ratio in assay [3] stood at 3. Moreover, in assay [2], the Ke(app) turned out to be 3030 nM.
Consider `CCOc1cc2c(cc1OC)CCN(CC(=O)NCc1cccnc1)C2Cc1ccc(OC)c(OC)c1` (stereo unspecified), for which the result in assay [4] was inactive. The Ke(app) in assay [2] worked out at 15.7 nM.
In the case of `COc1ccc(CC2c3cc(OCc4ccccc4)c(OC)cc3CCN2CC(=O)NCc2ccccc2)cc1OC` (stereo unspecified), in assay [1], the inhibition is less than 30%. Besides, in assay [4], the outcome was inactive. Further, the Ke(app) in assay [2] worked out at 402 nM.
Turning to `COc1ccc(CC2c3cc(OC)c(OC)cc3CCN2CC(=O)NCc2ccncc2)cc1OC` (stereo unspecified), in assay [1], the inhibition is less than 30%. Further, the Ke(app) in assay [2] turned out to be 1010 nM.
In the same order, the values of `COc1ccc(CC2c3cc(OC)c(OC)cc3CCN2CC(=O)NCCCc2ccccc2)cc1OC` (stereo unspecified) are less than 30% and 2370 nM.
`CCCCCCOc1cc2c(cc1OC)CCN(CC(=O)NCc1ccccc1)C2Cc1ccc(OC)c(OC)c1` (stereo unspecified): the outcome in assay [4] was inactive. Besides, the Ke(app) in assay [2] was 315 nM.
Turning to `CCOc1cc2c(cc1OC)CCN(CC(=O)NCc1ccccn1)C2Cc1ccc(OC)c(OC)c1` (stereo unspecified), the result in assay [4] was inactive. In addition, the Ke(app) in assay [2] is 87.4 nM.
In the same order, the values of `COc1ccc(CC2c3cc(OCCCCOc4ccccc4)c(OC)cc3CCN2CC(=O)NCc2ccccc2)cc1OC` (stereo unspecified) are “inactive” and 43.5 nM.
With `CCCCCCNC(=O)Nc1ccc(CNC(=O)CN2CCc3cc(OC)c(OC)cc3C2Cc2ccc(OC)c(OC)c2)cc1` (stereo unspecified), the Ratio in assay [3] was 0.7. The Ke(app) in assay [2] was 3680 nM.
Regarding `COc1ccc(CC2c3cc(OC)c(OC)cc3CCN2CC(=O)Nc2cccc(-c3ccccc3)c2)cc1OC` (stereo unspecified), the inhibition in assay [1] is less than 30%. The Ke(app) in assay [2] was 8980 nM.
`CCCOc1cc2c(cc1OC)CCN(CC(=O)NCc1ccccc1)C2Cc1ccc(OC)c(OC)c1` (stereo unspecified): in assay [4], the result was inactive. Further, the Ke(app) in assay [2] is 17.3 nM.
As for `COc1ccc(CC2c3cc(OC)c(OC)cc3CCN2CC(=O)N2CCN(c3ccccc3)CC2)cc1OC` (stereo unspecified), the inhibition in assay [1] was less than 30%. The Ke(app) in assay [2] is greater than 10000 nM.
For `COc1ccc(CC2c3cc(OCCN(C)C)c(OC)cc3CCN2CC(=O)NCc2ccccc2)cc1OC` (stereo unspecified), in that order: less than 30% and 4740 nM.
`COc1ccc(CC2c3cc(OC)c(OC)cc3CCN2CC(=O)OCc2ccccc2)cc1OC` (stereo unspecified): the inhibition in assay [1] is less than 30%. Besides, in assay [2], the Ke(app) is greater than 10000 nM.
`COc1ccc(CC2c3cc(OCC(F)(F)F)c(OC)cc3CCN2CC(=O)NCc2ccccn2)cc1OC` (stereo unspecified): in assay [4], the result was inactive. In addition, the Ke(app) in assay [2] turned out to be 22.5 nM.
For `COc1ccc(CC2c3cc(OC)c(OC)cc3CCN2CC(=O)NCCCN(C)C)cc1OC` (stereo unspecified), the inhibition in assay [1] is less than 30%. In assay [2], the Ke(app) is greater than 10000 nM.
In the same order, the values of `CNC(=O)CNC(=O)CN1CCc2cc(OC)c(OC)cc2C1Cc1ccc(OC)c(OC)c1` (stereo unspecified) are less than 30% and 7640 nM.
In the same order, the values of `COc1ccc(CC2c3cc(OC)c(OC)cc3CCN2CC(=O)NCC(N)=O)cc1OC` (stereo unspecified) are less than 30% and greater than 10000 nM.
In the case of `COc1ccc(CC2c3cc(OC)c(OC)cc3CCN2CC(=O)NCc2cccnc2)cc1OC` (stereo unspecified), the result in assay [4] was inactive. Further, the Ke(app) in assay [2] worked out at 152 nM.
As to `COC(=O)CNC(=O)CN1CCc2cc(OC)c(OC)cc2C1Cc1ccc(OC)c(OC)c1` (stereo unspecified), the inhibition in assay [1] was less than 30%. For the same compound, the Ke(app) in assay [2] amounted to 6630 nM.
As to `CCCC(=O)Oc1cc2c(cc1OC)CCN(CC(=O)NCc1ccccc1)C2Cc1ccc(OC)c(OC)c1` (stereo unspecified), the result in assay [4] was inactive. Moreover, the Ke(app) in assay [2] turned out to be 78.5 nM.
In the same order, the values of `COc1ccc(CC2c3cc(OS(=O)(=O)C(F)(F)F)c(OC)cc3CCN2CC(=O)NCc2ccccc2)cc1OC` (stereo unspecified) are “inactive” and 10 nM.
As to `COc1ccc(CC2c3cc(OC)c(OC)cc3CCN2CC(=O)N2CCCC(c3ccccc3)C2)cc1OC` (stereo unspecified), in assay [3], the Ratio turned out to be 2.6. Further, the Ke(app) in assay [2] was 3530 nM.
As to `COc1ccc(CC2c3cc(OC)c(OC)cc3CCN2CC(=O)Nc2ccc(-c3ccccc3)cc2)cc1OC` (stereo unspecified), the inhibition in assay [1] was less than 30%. Moreover, the Ke(app) in assay [2] was found to be 2240 nM.
Regarding `CCCOc1cc2c(cc1OC)CCN(CC(=O)NCc1cccnc1)C2Cc1ccc(OC)c(OC)c1` (stereo unspecified), the outcome in assay [4] was inactive. For the same compound, the Ke(app) in assay [2] is 41.9 nM.
With `COc1ccc(CC2c3cc(OCCCCN(C)C)c(OC)cc3CCN2CC(=O)NCc2ccccc2)cc1OC` (stereo unspecified), the inhibition in assay [1] is less than 30%. Further, the Ke(app) in assay [2] worked out at 5740 nM.
On to `CCCOc1cc2c(cc1OC)CCN(CC(=O)NCc1ccccn1)C2Cc1ccc(OC)c(OC)c1` (stereo unspecified), for which the outcome in assay [4] was inactive. Moreover, the Ke(app) in assay [2] was 20.6 nM.
In the case of `COc1ccc(CC2c3cc(OC)c(OC)cc3CCN2CC(=O)NCc2ccc(NC(C)=O)cc2)cc1OC` (stereo unspecified), the inhibition in assay [1] is less than 30%. In assay [2], the Ke(app) is greater than 10000 nM.
In the case of `COc1cc2c(cc1O)C(Cc1ccc(OC)c(OC)c1)N(CC(=O)NCc1ccccc1)CC2` (stereo unspecified), the Ratio in assay [3] came out at 3.8. Further, in assay [2], the Ke(app) was 1530 nM.
For `COc1ccc(CC2c3cc(OC)c(OC)cc3CCN2CC(=O)NC2CC(C)Nc3ccccc32)cc1OC` (stereo unspecified), the inhibition in assay [1] was less than 30%. Further, the Ke(app) in assay [2] was 7170 nM.
In the same order, the values of `COc1ccc(CC2c3cc(OC)c(OC)cc3CCN2CC(=O)Nc2ccnc3c(F)cccc23)cc1OC` (stereo unspecified) are less than 30% and 4220 nM.
As to `COc1ccc(CC2c3cc(OC)c(OC)cc3CCN2CC(=O)NCc2ccccn2)cc1OC` (stereo unspecified), the outcome in assay [4] was inactive. In addition, in assay [2], the Ke(app) stood at 261 nM.
`COc1ccc(CC2c3cc(OCc4ccccn4)c(OC)cc3CCN2CC(=O)NCc2ccccc2)cc1OC` (stereo unspecified): the inhibition in assay [1] was less than 30%. Besides, in assay [4], the result was inactive. The Ke(app) in assay [2] came to 101 nM.
For `COc1ccc(CC2c3cc(OS(=O)(=O)c4ccc(C)cc4)c(OC)cc3CCN2CC(=O)NCc2ccccc2)cc1OC` (stereo unspecified), in that order: less than 30%, “inactive” and 118 nM.
Consider `CCCCCC(=O)Nc1ccc(CNC(=O)CN2CCc3cc(OC)c(OC)cc3C2Cc2ccc(OC)c(OC)c2)cc1` (stereo unspecified), for which the Ke(app) in assay [2] is greater than 10000 nM.
As for `COc1ccc(CC2c3cc(OC)c(OC)cc3CCN2CC(=O)N2CCC(c3ccccc3)CC2)cc1OC` (stereo unspecified), in assay [1], the inhibition was less than 30%. In addition, the Ke(app) in assay [2] was greater than 10000 nM.
Turning to `COc1ccc(CC2c3cc(OC)c(OC)cc3CCN2CC(=O)NCc2ccccc2)cc1OC` (stereo unspecified), the outcome in assay [4] was inactive. Further, in assay [2], the Ke(app) was determined as 199 nM.
For `CCOc1cc2c(cc1OC)CCN(CC(=O)NCc1ccccc1)C2Cc1ccc(OC)c(OC)c1` (stereo unspecified), the result in assay [4] was inactive. Besides, the Ke(app) in assay [2] is 30 nM.
Regarding `COc1ccc(CC2c3cc(OC)c(OC)cc3CCN2CC(=O)NCCc2ccccc2)cc1OC` (stereo unspecified), the inhibition in assay [1] is less than 30%. Also, the Ke(app) in assay [2] came to 3250 nM.
For `COc1ccc(CC2c3cc(OCC4CCCCC4)c(OC)cc3CCN2CC(=O)NCc2ccccc2)cc1OC` (stereo unspecified), in that order: less than 30% and greater than 10000 nM.
Consider `COc1ccc(CC2c3cc(OC)c(OC)cc3CCN2CC(=O)Nc2cccc3ccccc23)cc1OC` (stereo unspecified), for which, in assay [1], the inhibition was less than 30%. Besides, in assay [4], the outcome was inactive. The Ke(app) in assay [2] came to 732 nM.
For `COc1ccc(CC2c3cc(OCc4cccnc4)c(OC)cc3CCN2CC(=O)NCc2ccccc2)cc1OC` (stereo unspecified), in that order: less than 30%, “inactive” and 277 nM.
With `COc1ccc(CC2c3cc(OCC(F)(F)F)c(OC)cc3CCN2CC(=O)NCc2ccccc2)cc1OC` (stereo unspecified), in assay [4], the outcome was inactive. Also, in assay [2], the Ke(app) is 9.4 nM.
In the case of `COc1ccc(CC2c3cc(OC)c(OC)cc3CCN2CC(=O)N(C)Cc2ccccc2)cc1OC` (stereo unspecified), the Ke(app) in assay [2] came out at 2090 nM.
`COc1ccc(CC2c3cc(OC)c(OC)cc3CCN2CC(=O)Nc2cc(C)nc3ccccc23)cc1OC` (stereo unspecified): the inhibition in assay [1] was less than 30%. Further, in assay [2], the Ke(app) is 4510 nM.
